Test system: endogenous BMP-2
Assay: CRISPR activation of endogenous BMP-2, qPCR in transfected HEK-293T cells
Format: cell-based, human
Details: qPCR 24 hours after transfection with constitutively-expressed dCas9-VPR, normalized to HPRT
Protocol: HEK-293T cells were transfected with constitutively-expressed dCas9-VPR (Addgene #63798) and gRNA-expressing plasmids (Addgene #41824, sequences targeting the 150 bp region of the transcription start site of the endogenous BMP-2 was cloned into the vector; gRNA2 seq: […], gRNA3 seq: […], GFP seq:). After 24 hours, BMP-2 induction was measured by qPCR, following manufacturer protocols. Groups of HEK-293T cells tested were: Untransfected (UT), dCas9-VPR (VPR), GFP, gRNA2, and gRNA3. All groups were normalized to Hypoxanthine-guanine phosphoribosyltransferase (HPRT) expression (FIG. 27). Untransfected, dCas9-VPR, gRNA2, and gRNA3 groups were compared to GFP to elucidate increase in expression levels (FIG. 28).

| Substance | induction of endogenous BMP-2 expression compared to GFP group [fold] |
| --- | --- |
| gRNA2: gRNA-expressing plasmid targeting the 150 bp region of the transcription start site of endogenous BMP-2; seq GGCGAGCCGCGCCGCGAAGG (expressed from plasmid) | 112 |
| gRNA3: gRNA-expressing plasmid targeting the 150 bp region of the transcription start site of endogenous BMP-2; seq GCTCGCCGGGGATCCCCGAG (expressed from plasmid) | 77 |

— patent US20210047653A1, “COMPOSITIONS AND METHODS FOR REGULATING A BIOLOGICAL PROCESS” (The University of Memphis Research Foundation, priority 2018, published 2021)
